Assay results as given in ChEMBL document CHEMBL3758179, “Baicalin Alleviates Silica-Induced Lung Inflammation and Fibrosis by Inhibiting the Th17 Response in C57BL/6 Mice” (2015).
Active and inactive are the calls of the source. No cut-off for these calls is given here.

How the values were obtained:
Mus musculus [1] = test: Inhibition of Th1 response in silica-induced C57BL/6 mouse lung inflammation and fibrosis model assessed as decrease in level of CD4+T cells coexpressing IFNgamma at 2 mg, ip administered every day measured on day 7 by flow cytometric analysis; assay type: functional, organism-based; details: CD4+T cell
Mus musculus [2] = test: Induction of Treg response in silica-induced C57BL/6 mouse lung inflammation and fibrosis model assessed as increase in Foxp3 mRNA expression in lung at 2 mg, ip administered every day measured on day 28, 56 by real time RT-PCR method relative to silica-treated control; assay type: functional, organism-based
Mus musculus [3] = test: Induction of Treg response in silica-induced C57BL/6 mouse lung inflammation and fibrosis model assessed as increase in TGF-beta mRNA expression at 2 mg, ip administered every day measured on day 7 by real time RT-PCR method relative to silica-treated control; assay type: functional, organism-based
Mus musculus [4] = test: Inhibition of Th17 response in spleen in silica-induced C57BL/6 mouse lung inflammation and fibrosis model assessed as decrease in level of CD4+T cells coexpressing IL-17A at 2 mg, ip administered every day measured on day 56 by flow cytometric analysis (reference value: 0.6 +/- 0.03%); assay type: functional, CD4+T cell
Mus musculus [5] = test: Induction of Treg response in silica-induced C57BL/6 mouse lung inflammation and fibrosis model assessed as increase in Foxp3 mRNA expression in spleen at 2 mg, ip administered every day measured on day 7, 28 by real time RT-PCR method relative to silica-treated control; assay type: functional, organism-based
Mus musculus [6] = test: Induction of Treg response in silica-induced C57BL/6 mouse lung inflammation and fibrosis model assessed as increase in level of CD4+T cells coexpressing Foxp3 in hilar lymph node at 2 mg, ip administered every day measured on day 7 by flow cytometric analysis (reference value: 12.14 +/- 0.53%); assay type: functional, CD4+T cell
Mus musculus [7] = test: Induction of Treg response in silica-induced C57BL/6 mouse lung inflammation and fibrosis model assessed as increase in level of CD4+T cells coexpressing Foxp3 in spleen at 2 mg, ip administered every day measured on day 56 by flow cytometric analysis (reference value: 10 +/- 0.53 %); assay type: functional, CD4+T cell
Mus musculus [8] = test: Inhibition of Th17 cell differentiation in silica-induced C57BL/6 mouse lung inflammation and fibrosis model assessed as decrease in IL-6 protein level in bronchoalveolar lavage fluid at 2 mg, ip administered every day measured on day 7 by cytometric bead array method relative to silica-treated control; assay type: functional, organism-based
Mus musculus [9] = test: Induction of Treg response in silica-induced C57BL/6 mouse lung inflammation and fibrosis model assessed as increase in level of CD4+T cells coexpressing Foxp3 in hilar lymph node at 2 mg, ip administered every day measured on day 28 by flow cytometric analysis (reference value: 8.18 +/- 0.61%); assay type: functional, CD4+T cell
Mus musculus [10] = test: Antiinflammatory activity in C57BL/6 mouse silicosis model assessed as reduction in silica-induced accumulation of neutrophils in bronchoalveolar lavage fluid at 2 mg, ip administered every day measured on day 7 by Giemsa staining method; assay type: functional, organism-based
Mus musculus [11] = test: Inhibition of Th17 cell differentiation in silica-induced C57BL/6 mouse lung inflammation and fibrosis model assessed as increase in IL-23 mRNA expression in lung at 2 mg, ip administered every day measured on day 7 by real time RT-PCR method relative to silica-treated control; assay type: functional, organism-based
Mus musculus [12] = test: Antiinflammatory activity in C57BL/6 mouse silicosis model assessed as reduction in silica-induced accumulation of total cells in bronchoalveolar lavage fluid at 2 mg, ip administered every day measured on day 7,28 and 56 by Giemsa staining method; assay type: functional, organism-based
Mus musculus [13] = test: Inhibition of Th1 response in silica-induced C57BL/6 mouse lung inflammation and fibrosis model assessed as decrease in IFN-gamma mRNA expression in spleen at 2 mg, ip administered every day measured on day 7, 28 by real time RT-PCR method relative to silica-treated control; assay type: functional, organism-based
Mus musculus [14] = test: Antiinflammatory activity in C57BL/6 mouse silicosis model assessed as silica-induced accumulation of macrophages in bronchoalveolar lavage fluid at 2 mg, ip administered every day measured on day 7,28 and 56 by Giemsa staining method; assay type: functional, organism-based
Mus musculus [15] = test: Induction of Treg response in silica-induced C57BL/6 mouse lung inflammation and fibrosis model assessed as increase in level of CD4+T cells coexpressing Foxp3 in spleen at 2 mg, ip administered every day measured on day 7 by flow cytometric analysis (reference value: 11.75 +/- 1.03%); assay type: functional, CD4+T cell
Mus musculus [16] = test: Inhibition of Th17 cell differentiation in silica-induced C57BL/6 mouse lung inflammation and fibrosis model assessed as decrease in IL-6 mRNA expression in lung at 2 mg, ip administered every day measured on day 28, 56 by real time RT-PCR method relative to silica-treated control; assay type: functional, organism-based
Mus musculus [17] = test: Antiinflammatory activity in C57BL/6 mouse silicosis model assessed as reduction in alveolar wall change at 2 mg, ip administered every day measured on day 7,28 and 56 by haematoxylin and eosin staining-based light microscopic analysis relative to silica-treated control; assay type: functional, organism-based
Mus musculus [18] = test: Inhibition of Th17 cell differentiation in silica-induced C57BL/6 mouse lung inflammation and fibrosis model assessed as increase in IL-23 mRNA expression in lung at 2 mg, ip administered every day measured on day 28, 56 by real time RT-PCR method relative to silica-treated control; assay type: functional, organism-based
Mus musculus [19] = test: Induction of Treg response in silica-induced C57BL/6 mouse lung inflammation and fibrosis model assessed as increase in IL-10 mRNA expression in lung at 2 mg, ip administered every day measured on day 7, 28 by real time RT-PCR method relative to silica-treated control; assay type: functional, organism-based
Mus musculus [20] = test: Antiinflammatory activity in C57BL/6 mouse silicosis model assessed as reduction in inflammatory cell infiltration at 2 mg, ip administered every day measured on day 7,28 and 56 by haematoxylin and eosin staining-based light microscopic analysis relative to silica-treated control; assay type: functional, organism-based
Mus musculus [21] = test: Induction of Treg response in silica-induced C57BL/6 mouse lung inflammation and fibrosis model assessed as increase in level of CD4+T cells coexpressing Foxp3 in hilar lymph node at 2 mg, ip administered every day measured on day 56 by flow cytometric analysis (reference value: 8.76 +/- 0.23%); assay type: functional, CD4+T cell
Mus musculus [22] = test: Inhibition of Th17 response in silica-induced C57BL/6 mouse lung inflammation and fibrosis model assessed as decrease in IL-17A mRNA expression in lung at 2 mg, ip administered every day measured on day 7 by real time RT-PCR method relative to silica-treated control; assay type: functional, organism-based
Mus musculus [23] = test: Induction of Treg response in silica-induced C57BL/6 mouse lung inflammation and fibrosis model assessed as increase in level of CD4+T cells coexpressing Foxp3 in spleen at 2 mg, ip administered every day measured on day 28 by flow cytometric analysis (reference value: 10.88 +/- 0.55 %); assay type: functional, CD4+T cell
Mus musculus [24] = test: Inhibition of Th17 response in spleen in silica-induced C57BL/6 mouse lung inflammation and fibrosis model assessed as decrease in level of CD4+T cells coexpressing IL-17A at 2 mg, ip administered every day measured on day 7 by flow cytometric analysis (reference value: 0.9 +/- 0.11%); assay type: functional, CD4+T cell
Mus musculus [25] = test: Inhibition of silica-induced lung fibrosis in C57BL/6 mouse silicosis model at 2 mg, ip administered every day measured on day 28 to 56 by Masson staining-based light microscopic analysis; assay type: functional, organism-based
Mus musculus [26] = test: Inhibition of Th2 response in silica-induced C57BL/6 mouse lung inflammation and fibrosis model assessed as decrease in GATA-3 mRNA expression in lung at 2 mg, ip administered every day measured on day 7, 56 by real time RT-PCR method relative to silica-treated control; assay type: functional, organism-based
Mus musculus [27] = test: Inhibition of Th1 response in silica-induced C57BL/6 mouse lung inflammation and fibrosis model assessed as decrease in IFN-gamma mRNA expression in lung at 2 mg, ip administered every day measured on day 7 by real time RT-PCR method relative to silica-treated control; assay type: functional, organism-based
Mus musculus [28] = test: Inhibition of Th17 response in spleen in silica-induced C57BL/6 mouse lung inflammation and fibrosis model assessed as decrease in level of CD4+T cells coexpressing IL-17A at 2 mg, ip administered every day measured on day 28 by flow cytometric analysis (reference value: 0.68 +/- 0.07%); assay type: functional, CD4+T cell
Mus musculus [29] = test: Inhibition of Th17 response in hilar lymph node in silica-induced C57BL/6 mouse lung inflammation and fibrosis model assessed as decrease in level of CD4+T cells coexpressing IL-17A at 2 mg, ip administered every day measured on day 28 by flow cytometric analysis (reference value: 0.76 +/- 0.07%); assay type: functional, CD4+T cell
Mus musculus [30] = test: Inhibition of Th17 response in hilar lymph node in silica-induced C57BL/6 mouse lung inflammation and fibrosis model assessed as decrease in level of CD4+T cells coexpressing IL-17A at 2 mg, ip administered every day measured on day 7 by flow cytometric analysis (reference value: 1.08 +/- 0.07%); assay type: functional, CD4+T cell
Mus musculus [31] = test: Inhibition of Th2 response in silica-induced C57BL/6 mouse lung inflammation and fibrosis model assessed as decrease in IL-4 level in bronchoalveolar lavage fluid at 2 mg, ip administered every day measured on day 7, 28, 56 by cytometric bead array method relative to silica-treated control; assay type: functional, organism-based
Mus musculus [32] = test: Inhibition of Th17 response in silica-induced C57BL/6 mouse lung inflammation and fibrosis model assessed as decrease in RORgammat mRNA expression in spleen at 2 mg, ip administered every day measured on day 7, 28, 56 by real time RT-PCR method relative to silica-treated control; assay type: functional, organism-based
Mus musculus [33] = test: Inhibition of Th17 cell differentiation in silica-induced C57BL/6 mouse lung inflammation and fibrosis model assessed as decrease in IL-6 protein level in bronchoalveolar lavage fluid at 2 mg, ip administered every day measured on day 28 to 56 by cytometric bead array method; assay type: functional, organism-based
Mus musculus [34] = test: Inhibition of Th17 cell differentiation in silica-induced C57BL/6 mouse lung inflammation and fibrosis model assessed as decrease in IL-6 mRNA expression in lung at 2 mg, ip administered every day measured on day 7 by real time RT-PCR method relative to silica-treated control; assay type: functional, organism-based
Mus musculus [35] = test: Antiinflammatory activity in C57BL/6 mouse silicosis model assessed as silica-induced accumulation of lymphocytes in bronchoalveolar lavage fluid at 2 mg, ip administered every day measured on day 7,28 and 56 by Giemsa staining method; assay type: functional, organism-based
Mus musculus [36] = test: Inhibition of Th1 response in silica-induced C57BL/6 mouse lung inflammation and fibrosis model assessed as decrease in TNFalpha mRNA expression in bronchoalveolar lavage fluid at 2 mg, ip administered every day measured on day 7 by real time RT-PCR method; assay type: functional, organism-based

SMILES: O=C(O)[C@H]1O[C@@H](Oc2cc3oc(-c4ccccc4)cc(=O)c3c(O)c2O)[C@H](O)[C@@H](O)[C@@H]1O [BAICALIN]
- inhibition (Mus musculus [1]): Active
- Activity (Mus musculus [2]): Active
- Activity (Mus musculus [3]): Active
- IL-17A+ CD4+ T cells (Mus musculus [4]): 0.4%
- Activity (Mus musculus [5]): Active
- Activity (Mus musculus [6]): 15.92%
- Activity (Mus musculus [7]): 11.76%
- inhibition (Mus musculus [8]): Active
- Activity (Mus musculus [9]): 13.72%
- Activity (Mus musculus [10]): Active
- inhibition (Mus musculus [11]): inactive
- Activity (Mus musculus [12]): Active
- inhibition (Mus musculus [13]): Active
- Activity (Mus musculus [14]): inactive
- Activity (Mus musculus [15]): 17.4%
- inhibition (Mus musculus [16]): inactive
- Activity (Mus musculus [17]): Active
- inhibition (Mus musculus [18]): Active
- Activity (Mus musculus [19]): Active
- Activity (Mus musculus [20]): Active
- Activity (Mus musculus [21]): 10.3%
- inhibition (Mus musculus [22]): Active
- Activity (Mus musculus [23]): 14.34%
- IL-17A+ CD4+ T cells (Mus musculus [24]): 0.42%
- inhibition (Mus musculus [25]): Active
- inhibition (Mus musculus [26]): Active
- inhibition (Mus musculus [27]): Active
- IL-17A+ CD4+ T cells (Mus musculus [28]): 0.42%
- IL-17A+ CD4+ T cells (Mus musculus [29]): 0.5%
- IL-17A+ CD4+ T cells (Mus musculus [30]): 0.46%
- inhibition (Mus musculus [31]): Active
- inhibition (Mus musculus [32]): Active
- inhibition (Mus musculus [33]): inactive
- inhibition (Mus musculus [34]): Active
- Activity (Mus musculus [35]): Active
- inhibition (Mus musculus [36]): Active
